According to the supplement of paper PMC4862054:

Experiments:
Conditions in all cases: 72 h
CAL-120 [1] = tested on: CAL-120
In short: (§1)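 Two sequential readouts followed a 72 h incubation of breast cancer cell lines with compound at 5 concentrations in 10-fold steps over a compound-specific 10,000-fold range: CellTox Green fluorescence (485/520 nm) for cell death, then CellTiter-Glo luminescence, after 10 min at room temperature, for viability. Each plate was normalised to 0.1 % DMSO and a positive kill control. Dose-response curves were fitted for EC50, censored at the top concentration.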

CAL-120 [2] = tested on: CAL-120; remark: listed apart in the source
Procedure: (§2)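 Drug sensitivity and resistance testing (DSRT) of breast cancer cell lines in 384-well plates, 5 concentrations in 10-fold dilutions over a compound-specific 10,000-fold range. After 72 h, cytotoxicity was read by CellTox Green fluorescence and viability by CellTiter-Glo luminescence (multiplexed), normalised to DMSO and benzethonium chloride controls. EC50 is the inflection point of the fitted dose-response curve (bottom asymptote free, so it can be relative for partial curves) and is censored at the highest tested concentration. Rows with DSS 0 (no meaningful response) were excluded.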

BT-474 [3] = tested on: BT-474
In short: as §1

BT-549 [4] = tested on: BT-549
In short: as §1

CAL-85-1 [5] = tested on: CAL-85-1
In short: as §1

HCC1143 [6] = tested on: HCC1143
In short: as §1

HCC1937 [7] = tested on: HCC1937
In short: as §1

HDQ-P1 = tested on: HDQ-P1
In short: as §1

Hs578T [8] = tested on: Hs578T
In short: as §1

MCF-10A = tested on: MCF-10A
In short: as §1

MDA-MB-231 [9] = tested on: MDA-MB-231
In short: as §1

MFM-223 [10] = tested on: MFM-223
In short: as §1

SK-BR-3 [11] = tested on: SK-BR-3
In short: as §1

BT-549 [12] = tested on: BT-549; remark: listed apart in the source
Procedure: as §2

CAL-85-1 [13] = tested on: CAL-85-1; remark: listed apart in the source
Procedure: as §2

Hs578T [14] = tested on: Hs578T; remark: listed apart in the source
Procedure: as §2

MDA-MB-231 [15] = tested on: MDA-MB-231; remark: listed apart in the source
Procedure: as §2

CAL-148 [16] = tested on: CAL-148
In short: as §1

DU-4475 [17] = tested on: DU-4475
In short: as §1

MDA-MB-453 [18] = tested on: MDA-MB-453
In short: as §1

CAL-148 [19] = tested on: CAL-148; remark: listed apart in the source
In short: (§3)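 The reported EC50 was fitted from percent-inhibition dose-response curves and censored at the highest concentration. Breast cancer cell lines (20 µl suspension) were added to 384-well plates containing compound in 5 µl medium and incubated 72 h, and viability was read with 2.5 µl CellTiter-Blue over 2 h at 37 °C at 560/590 nm. Each plate was normalised to vehicle and a positive kill control and checked by Z'-factor, and rows with zero drug sensitivity score were dropped.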

CAL-51 [20] = tested on: CAL-51
In short: as §3

MDA-MB-453 [21] = tested on: MDA-MB-453; remark: listed apart in the source
In short: as §3

BT-474 [22] = tested on: BT-474; remark: listed apart in the source
In short: as §3

MDA-MB-468 [23] = tested on: MDA-MB-468
In short: as §3

MFM-223 [24] = tested on: MFM-223; remark: listed apart in the source
In short: as §3

SK-BR-3 [25] = tested on: SK-BR-3; remark: listed apart in the source
In short: as §3

CAL-148 [26] = tested on: CAL-148; remark: listed apart in the source
Procedure: as §2

CAL-51 [27] = tested on: CAL-51; remark: listed apart in the source
In short: as §1

MDA-MB-436 [28] = tested on: MDA-MB-436
In short: as §1

MDA-MB-468 [29] = tested on: MDA-MB-468; remark: listed apart in the source
In short: as §1

DU-4475 [30] = tested on: DU-4475; remark: listed apart in the source
In short: as §3

HCC1937 [31] = tested on: HCC1937; remark: listed apart in the source
In short: as §3

CAL-51 [32] = tested on: CAL-51; remark: listed apart in the source
Procedure: as §2

MDA-MB-436 [33] = tested on: MDA-MB-436; remark: listed apart in the source
Procedure: as §2

BT-549 [34] = tested on: BT-549; remark: listed apart in the source
In short: as §3

MDA-MB-436 [35] = tested on: MDA-MB-436; remark: listed apart in the source
In short: as §3

HCC1937 [36] = tested on: HCC1937; remark: listed apart in the source
Procedure: as §2

MDA-MB-453 [37] = tested on: MDA-MB-453; remark: listed apart in the source
Procedure: as §2

HCC1599 [38] = tested on: HCC1599
In short: as §1

CAL-85-1 [39] = tested on: CAL-85-1; remark: listed apart in the source
In short: as §3

CAL-120 [40] = tested on: CAL-120; remark: listed apart in the source
In short: as §3

HCC1143 [41] = tested on: HCC1143; remark: listed apart in the source
In short: as §3

HCC1599 [42] = tested on: HCC1599; remark: listed apart in the source
In short: as §3

Hs578T [43] = tested on: Hs578T; remark: listed apart in the source
In short: as §3

MDA-MB-231 [44] = tested on: MDA-MB-231; remark: listed apart in the source
In short: as §3

MDA-MB-468 [45] = tested on: MDA-MB-468; remark: listed apart in the source
Procedure: as §2

Row | Compound | EC50, CellTiter-Glo (CAL-120 [1]) | EC50, CellTiter-Glo (BT-474 [3]) | EC50, CellTiter-Glo (BT-549 [4]) | EC50, CellTiter-Glo (CAL-85-1 [5]) | EC50, CellTiter-Glo (HCC1143 [6]) | EC50, CellTiter-Glo (HCC1937 [7]) | EC50, CellTiter-Glo (HDQ-P1) | EC50, CellTiter-Glo (Hs578T [8]) | EC50, CellTiter-Glo (MCF-10A) | EC50, CellTiter-Glo (MDA-MB-231 [9]) | EC50, CellTiter-Glo (MFM-223 [10]) | EC50, CellTiter-Glo (SK-BR-3 [11]) | EC50, CellTox Green (CAL-85-1 [13]) | EC50, CellTiter-Glo (CAL-148 [16]) | EC50, CellTiter-Glo (DU-4475 [17]) | EC50, CellTiter-Glo (MDA-MB-453 [18]) | EC50, CellTiter-Blue viability (CAL-51 [20]) | EC50, CellTiter-Blue viability (MDA-MB-453 [21]) | EC50, CellTiter-Blue viability (MDA-MB-468 [23]) | EC50, CellTiter-Glo (CAL-51 [27]) | other results
1 | C[C@]12C=CC(=O)C=C1CC[C@@H]1[C@@H]2C(=O)C[C@@]2(C)[C@H]1CC[C@]2(O)C(=O)CO [Prednisone] | 8390 nM | – | – | – | – | – | – | – | – | – | – | – | – | – | – | – | – | – | – | – | EC50, CellTox Green (CAL-120 [2]): 1000 nM
2 | COc1cc(Nc2ncc(F)c(Nc3ccc4c(n3)N(COP(=O)(O)O)C(=O)C(C)(C)O4)n2)cc(OC)c1OC [Fostamatinib] | 405 nM | 1160 nM | 599 nM | 1560 nM | 530 nM | > 2500 nM | 1660 nM | 938 nM | 451 nM | 452 nM | 222 nM | > 2500 nM | 725 nM | – | – | – | – | – | – | – | EC50, CellTox Green (BT-549 [12]): 1.6 nM; EC50, CellTox Green (Hs578T [14]): 1080 nM; EC50, CellTox Green (MDA-MB-231 [15]): 267 nM
3 | NC1(c2ccc(-c3nc4ccn5c(=O)[nH]nc5c4cc3-c3ccccc3)cc2)CCC1 [MK-2206] | – | – | 137 nM | – | – | – | – | > 1000 nM | – | – | 436 nM | 280 nM | – | 279 nM | > 1000 nM | 472 nM | 942 nM | 436 nM | 131 nM | – | EC50, CellTiter-Blue viability (CAL-148 [19]): 790 nM; EC50, CellTiter-Blue viability (BT-474 [22]): 192 nM; EC50, CellTiter-Blue viability (MFM-223 [24]): 369 nM; EC50, CellTiter-Blue viability (SK-BR-3 [25]): 116 nM; EC50, CellTox Green (CAL-148 [26]): 478 nM
4 | O=C(c1cc(Cc2n[nH]c(=O)c3ccccc23)ccc1F)N1CCN(C(=O)C2CC2)CC1 [Olaparib] | > 10000 nM | – | 4140 nM | – | – | – | – | – | – | – | – | – | – | 1200 nM | – | – | 6590 nM | – | 1610 nM | 45.4 nM | EC50, CellTiter-Glo (MDA-MB-436 [28]): 1040 nM; EC50, CellTiter-Glo (MDA-MB-468 [29]): 1510 nM; EC50, CellTiter-Blue viability (DU-4475 [30]): 418 nM; EC50, CellTiter-Blue viability (HCC1937 [31]): 116 nM; EC50, CellTox Green (CAL-51 [32]): 8300 nM; EC50, CellTox Green (MDA-MB-436 [33]): 498 nM
5 | CC/C(=C(\c1ccccc1)c1ccc(OCCN(C)C)cc1)c1ccccc1 [Tamoxifen] | > 10000 nM | – | – | – | – | > 10000 nM | – | – | – | – | 3370 nM | > 10000 nM | – | – | – | 2560 nM | – | 5970 nM | 4420 nM | 233 nM | EC50, CellTiter-Blue viability (BT-549 [34]): 3420 nM; EC50, CellTiter-Blue viability (MDA-MB-436 [35]): 7520 nM; EC50, CellTox Green (HCC1937 [36]): 325 nM; EC50, CellTox Green (MDA-MB-453 [37]): 7240 nM
6 | Nc1nc(Cl)nc2c1ncn2[C@@H]1O[C@H](CO)[C@@H](O)[C@@H]1F [Clofarabine] | 305 nM | 196 nM | 211 nM | 398 nM | 320 nM | – | 482 nM | 3150 nM | 675 nM | 524 nM | – | 201 nM | 1420 nM | 601 nM | 872 nM | – | 870 nM | 484 nM | 453 nM | 261 nM | EC50, CellTiter-Glo (HCC1599 [38]): 1740 nM; EC50, CellTiter-Glo (MDA-MB-436 [28]): 219 nM; EC50, CellTiter-Glo (MDA-MB-468 [29]): 627 nM; EC50, CellTiter-Blue viability (CAL-148 [19]): 563 nM; EC50, CellTiter-Blue viability (CAL-85-1 [39]): 152 nM; EC50, CellTiter-Blue viability (DU-4475 [30]): 472 nM; EC50, CellTiter-Blue viability (BT-549 [34]): 340 nM; EC50, CellTiter-Blue viability (CAL-120 [40]): 116 nM; EC50, CellTiter-Blue viability (HCC1143 [41]): 118 nM; EC50, CellTiter-Blue viability (HCC1599 [42]): 2220 nM; EC50, CellTiter-Blue viability (HCC1937 [31]): 180 nM; EC50, CellTiter-Blue viability (Hs578T [43]): 149 nM; EC50, CellTiter-Blue viability (MDA-MB-231 [44]): 20.5 nM; EC50, CellTiter-Blue viability (MDA-MB-436 [35]): 104 nM; EC50, CellTiter-Blue viability (SK-BR-3 [25]): 90.6 nM; EC50, CellTox Green (CAL-148 [26]): 169 nM; EC50, CellTox Green (CAL-51 [32]): 108 nM; EC50, CellTox Green (MDA-MB-468 [45]): > 10000 nM
